Test results reported in patent publication US8741871B2, “Trehalose compound, method for producing same, and pharmaceutical product containing the compound” (priority 2008, dated 2014).

Experiments:
[1] = tested on: mouse intraperitoneal macrophages; assay: Measurement of cytokine released from mouse intraperitoneal macrophages (ELISA); type: cell-based; conditions: 100 μM test compound, two hours
Procedure: Mouse intraperitoneal macrophages, a 40 mM test compound solution, and an RPMI 1640 medium were prepared in the same manner as described above.
Macrophages were added to a TC-Plate, so that they became 80% confluent. The macrophages were incubated at 37° C. for 2 hours. Thereafter, the supernatant was discarded, and the cells were then washed with 500 μl of RPMI 1640 medium. This washing operation was repeatedly carried out two times. An emulsion solution of the test compound (final concentration: 100 μM) was allowed to act on the macrophages, and two hours later, the medium was transferred into another Eppendorf tube. […] This supernatant was used as a sample, and the released cytokines were analyzed using ELISA kit (IL-6, TNF-α Quantikine Immunoassay (R & D System (trademark)).

[2] = tested on: Welch bacillus toxin (recombinant α-toxin); conditions: in vivo, ip
[3] = tested on: Pseudomonas aeruginosa (Fhu-071115 strain); type: in vivo
Procedure: As a test compound, 1 mg of the compound synthesized by the method described in Production Example α-1 was weighed. An emulsion solution of the test compound was prepared in the same manner as described above.
Pseudomonas aeruginosa (Fhu-071115 strain) derived from patients was used, and it was prepared as follows.
L-broth was withdrawn with a 40-ml measuring pipette and was then added to a 200-ml flask, and the flask was then sealed with a sponge plug. At the same time, 5 ml of L-broth was added to each of two other screw-top test tubes. The thus prepared flask and screw-top test tubes were subjected to an autoclave at 121° C. for 20 minutes. After the L-broth medium had been cooled to a room temperature, Pseudomonas aeruginosa, which had been stored in an ultra low temperature freezer, was added into 40 ml of the L-broth the medium in a clean bench. The obtained mixture was shaken in an incubator overnight. Thereafter, the resultant was centrifuged at 9000 rpm for 15 minutes, and the supernatant was then removed. […] This process was carried out three times. Thereafter, 4.5 ml of sterilized normal saline solution was added to the resultant, and the mixture was then blended with the use of a Vortex mixer. The obtained solution was used as a strain stock solution. Using a 1000-fold diluted strain solution, the number of cells was counted with OneCell Counter. Thereafter, the strain stock solution was diluted to a desired concentration, and the thus diluted solution was then used in the subsequent test.
Mice were divided into two groups, and the following two types of experiments were carried out. • (A) The aforementioned emulsion solution containing the test compound (100 μg/mouse) was intraperitoneally administered to a group of three mice (ICR, 5-week-old). Three hours later, Pseudomonas aeruginosa (5.0×10^7 cells/mouse) was intraperitoneally administered to the mice. Thereafter, the condition of the mice was observed. (B) Pseudomonas aeruginosa (2.0×10^7 cells/mouse) was intraperitoneally administered to a group of three mice (ICR, 5-week-old). Three hours later, the aforementioned emulsion solution containing the test compound (100 μg/mouse) was intraperitoneally administered to the mice. Thereafter, the condition of the mice was observed.

[4] = tested on: Pseudomonas aeruginosa; type: in vivo
[5] = tested on: breast cancer cells (FM3A cells); type: in vivo; conditions: 100 μg/mouse i.p. twenty-four hours before FM3A inoculation, nineteen days later
Procedure: The 100 μg/mouse test compound obtained in Example 9 (emulsion solution) was intraperitoneally administered to each mouse, and twenty-four hours later, breast cancer cells (FM3A cells) were inoculated into the abdominal cavity thereof. Nineteen days later, the body weight of each mouse was measured. In addition, the tissue sections of diaphragm, pancreas and testis were subjected to HE staining, and they were then observed under a microscope. As a result, the body weight of the breast cancer cell-inoculated mouse was increased by approximately 10 g, when compared with a control mouse, and it was observed that the mouse contained a large amount of ascites fluid.

Structure (SMILES): CCCCCCCCCCC(CCCCCCCCCC)C(=O)OCC1O[C@H](O[C@H]2OC(COC(=O)C(CCCCCCCCCC)CCCCCCCCCC)[C@@H](O)C(O)C2O)C(O)C(O)[C@@H]1O (stereo partly drawn) [Example 1, 6,6′-bis-O-(2-decyldodecanoyl)-α,α′-trehalose]
- amount of IL-6 released from mouse intraperitoneal macrophages ([1]; vehicle approximately 15 pg/ml): approximately 200 pg/ml
- amount of TNF-α released from mouse intraperitoneal macrophages ([1]; vehicle approximately 80 pg/ml): approximately 1000 pg/ml
- Number of surviving mice/number of treated mice, 2 hours later [2]: 4/4
- Number of surviving mice/number of treated mice, 6 hours later [2]: 4/4
- Number of surviving mice/number of treated mice, 12 hours later [2]: 4/4
- Number of surviving mice/number of treated mice, 24 hours later [2]: 3/4
- Number of surviving mice/number of treated mice, 48 hours later [2]: 3/4
- Number of surviving mice/number of treated mice, 2 hours later (Group A) ([3]; Group A: pre-administration 100 μg/mouse i.p., three hours later Pseudomonas aeruginosa 5.0×10^7 cells/mouse i.p., 2 hours later): 3/3
- Number of surviving mice/number of treated mice, 4 hours later (Group A) ([3]; Group A: pre-administration 100 μg/mouse i.p., three hours later Pseudomonas aeruginosa 5.0×10^7 cells/mouse i.p., 4 hours later): 3/3
- Number of surviving mice/number of treated mice, 15 hours later (Group A) ([3]; Group A: pre-administration 100 μg/mouse i.p., three hours later Pseudomonas aeruginosa 5.0×10^7 cells/mouse i.p., 15 hours later): 2/3
- Number of surviving mice/number of treated mice, 24 hours later (Group A) ([3]; Group A: pre-administration 100 μg/mouse i.p., three hours later Pseudomonas aeruginosa 5.0×10^7 cells/mouse i.p., 24 hours later): 2/3
- Number of surviving mice/number of treated mice, 48 hours later (Group A) ([3]; Group A: pre-administration 100 μg/mouse i.p., three hours later Pseudomonas aeruginosa 5.0×10^7 cells/mouse i.p., 48 hours later): 2/3
- Number of surviving mice/number of treated mice, 2 hours later (Group B) ([3]; Group B: Pseudomonas aeruginosa 2.0×10^7 cells/mouse i.p., three hours later test compound 100 μg/mouse i.p., 2 hours later): 3/3
- Number of surviving mice/number of treated mice, 4 hours later (Group B) ([3]; Group B: Pseudomonas aeruginosa 2.0×10^7 cells/mouse i.p., three hours later test compound 100 μg/mouse i.p., 4 hours later): 3/3
- Number of surviving mice/number of treated mice, 15 hours later (Group B) ([3]; Group B: Pseudomonas aeruginosa 2.0×10^7 cells/mouse i.p., three hours later test compound 100 μg/mouse i.p., 15 hours later): 3/3
- Number of surviving mice/number of treated mice, 24 hours later (Group B) ([3]; Group B: Pseudomonas aeruginosa 2.0×10^7 cells/mouse i.p., three hours later test compound 100 μg/mouse i.p., 24 hours later): 1/3
- Number of surviving mice/number of treated mice, 48 hours later (Group B) ([3]; Group B: Pseudomonas aeruginosa 2.0×10^7 cells/mouse i.p., three hours later test compound 100 μg/mouse i.p., 48 hours later): 1/3

Structure (SMILES): CCCCCCCCCC(CCCCCCCCC)CC(=O)OCC1O[C@H](O[C@H]2OC(COC(=O)CC(CCCCCCCCC)CCCCCCCCC)[C@@H](O)C(O)C2O)C(O)C(O)[C@@H]1O (stereo partly drawn) [Example 9, 6,6′-bis-O-(3-nonyldodecanoyl)-α,α′-trehalose]
- lethality of Pseudomonas aeruginosa-infected mice, post-administration ([4]; 100 μg/mouse i.p. three hours after infection with Pseudomonas aeruginosa, FIG. 18): significantly suppressed
- lethality of Pseudomonas aeruginosa-infected mice, pre-administration ([4]; pre-administration 100 μg/mouse i.p., twenty-four hours later 3.0×10^10 CFU/mL Pseudomonas aeruginosa i.p., FIG. 17): significantly suppressed
- body weight of breast cancer cell-inoculated mouse [5]: equivalent to that of a control mouse
- infiltration and metastasis of the cancer cells into various organs (diaphragm, pancreas, testis) ([5]; HE staining, FIG. 20): not observed at all
